Experiments:
SD rats = assay: Assay for the facilitatory effect on urinary glucose excretion; assay type: in vivo; conditions: fasted male SD rats, sucrose 2.5 g/kg load, 24 hours urine
Description: Assay for the Facilitatory Effect on Urinary Glucose Excretion
As experimental animals, overnight fasted SD rats (Japan SLC. Inc., male, 7-8 weeks of age, 205-272 g) were used. A Test compound was suspended in 0.5% sodium carboxymethylcellulose solution at the concentration of 2 mg/mL. When a homogenous suspension was not obtained in this condition, the test compound was dissolved in ethanol at the concentration of 100 mg/mL of its active form and then 2 mg/mL suspension was obtained by adding this solution to 49 times volumes of 0.5% sodium carboxymethylcellulose solution. Apart of this suspension was diluted with 0.5% sodium carboxymethylcellulose solution and then 0.6 and 0.2 mg/mL suspensions were prepared. After the body weights of rats were measured, the test suspension was orally administered at the dose of 5 mL/kg (1, 3 and 10 mg/kg). For control, just only 0.5% sodium carboxymethylcellulose solution was orally administered at the dose of 5 mL/kg. Immediately after this oral administration, 500 g/L sucrose solution was orally administered at the dose of 5 mL/kg (2.5 g/kg). The oral administration was performed with gastric tube for rat and 2.5 mL syringe. The head count in one group was 3. Collection of urine was performed in metabolic cage after the sucrose administration was finished. The sampling time for collection of urine was 24 hours after the sucrose administration. After collection of urine was finished, the urine volume was recorded and the urinary glucose concentration was measured. The glucose concentration was measured with a kit for laboratory test: Glucose B-Test WAKO (Wako Pure Chemical Industries, Ltd.). The amount of urinary glucose excretion in 24 hours per 200 g of body weight was calculated from urine volume, urinary glucose concentration and body weight.

SD rat = assay: Acute toxicity test; assay type: in vivo; conditions: oral 1000 mg/kg; male SD rat, 5 animals in each group; observation for 24 hours
Description: A 100 mg/mL suspension was prepared by adding 0.5% sodium carboxymethylcellulose solution to a test compound. Five week old male SD rat (CLEA JAPAN, INC., 124-128 g, 5 animals in each group) were used as test animals after fasted overnight. The above-mentioned suspension was orally administered at the dose 10 mL/kg (1000 mg/kg) to the test animals, and observation was performed for 24 hours.

human SGLT2 = target: T1, human SGLT2 (Homo sapiens, UniProt P31639, I433V); assay: Assay for inhibitory effect on human SGLT2 activity (uptake of methyl-α-D-glucopyranoside in COS-7 cells transiently expressing human SGLT2); assay type: cell-based; conditions: methyl-α-D-(U-14C)glucopyranoside uptake, 37° C., 2 hours
T1 construct: expressed in transfected cells; host or cells: COS-7 cells (RIKEN CELL BANK RCB0539), transient, electroporation of KL29
T1 sequence (P31639 1-672 I433V): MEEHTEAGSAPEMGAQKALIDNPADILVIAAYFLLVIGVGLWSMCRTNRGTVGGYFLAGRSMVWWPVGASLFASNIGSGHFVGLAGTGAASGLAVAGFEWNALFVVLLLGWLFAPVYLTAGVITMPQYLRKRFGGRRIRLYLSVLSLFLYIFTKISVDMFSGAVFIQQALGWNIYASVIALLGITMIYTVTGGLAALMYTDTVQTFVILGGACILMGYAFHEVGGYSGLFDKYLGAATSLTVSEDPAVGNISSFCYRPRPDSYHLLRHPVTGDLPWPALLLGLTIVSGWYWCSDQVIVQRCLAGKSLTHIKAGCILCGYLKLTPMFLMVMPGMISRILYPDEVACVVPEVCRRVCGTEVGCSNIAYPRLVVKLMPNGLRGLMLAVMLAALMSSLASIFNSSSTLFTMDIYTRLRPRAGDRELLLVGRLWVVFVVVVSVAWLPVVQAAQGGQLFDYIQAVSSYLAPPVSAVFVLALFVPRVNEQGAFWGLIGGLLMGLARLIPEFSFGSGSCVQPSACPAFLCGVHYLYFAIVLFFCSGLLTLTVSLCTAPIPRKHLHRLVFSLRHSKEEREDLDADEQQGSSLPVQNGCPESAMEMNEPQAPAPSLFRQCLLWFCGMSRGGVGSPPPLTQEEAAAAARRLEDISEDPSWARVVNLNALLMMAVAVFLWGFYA
Description: Assay for Inhibitory Effect on Human SGLT2 Activity
1) Construction of the Plasmid Vector Expressing Human SGLT2
Preparation of the cDNA library for PCR amplification was performed by reverse transcription of a total RNA deprived from human kidney (Ori gene) with oligo dT as the primer, using […] Preamplification System (Gibco-BRL: LIFE TECHNOLOGIES). The DNA fragment coding for human SGLT2 was amplified by the PCR reaction, in which the human kidney cDNA library described above was used as the template and the following oligo nucleotides 0702F and 0712R, presented as SEQ ID NO:1 and SEQ ID NO:2 respectively, were used as the primers. The amplified DNA fragment was ligated into pCR-Blunt (Invitrogen), a vector for cloning, according to standard method of the kit. The Escherichia coli HB101 was transformed according to usual method and then selection of the transformants was performed on the LB agar medium containing 50 μg/mL of kanamycin. […] After plasmid DNA was extracted and purified from this transformant, the base sequence of the DNA fragment inserted at the multi-cloning sites of the vector pcDNA3.1 (−) Myc/His-B was analyzed. […]

| SMILES | Amount of urinary glucose excretion (SD rats; oral dose 1 mg/kg) | Amount of urinary glucose excretion (SD rats; oral dose 3 mg/kg) | Amount of urinary glucose excretion (SD rats; oral dose 10 mg/kg) | Number of death (SD rat) | IC50 (human SGLT2) [nM] |
| --- | --- | --- | --- | --- | --- |
| CCOC(=O)OC[C@H]1O[C@@H](Oc2cc(CO)ccc2Cc2ccc(CC)cc2)[C@H](O)[C@@H](O)[C@@H]1O [Example 1, 2-(4-Ethylbenzyl)-5-hydroxymethylphenyl 6-O-ethoxycarbonyl-β-D-glucopyranoside] | 7.0 mg/24 hours/200 g body weight | 82.1 mg/24 hours/200 g body weight | 195.8 mg/24 hours/200 g body weight | 0/5 |  |
| CC(=O)OCCc1ccc(Cc2ccccc2O[C@@H]2O[C@H](COC(C)=O)[C@@H](O)[C@H](O)[C@H]2O)cc1 [Example 40, 2-[4-(2-Acetoxyethyl)benzyl]phenyl 6-O-acetyl-β-D-glucopyranoside] | 0.0 mg/24 hours/200 g body weight | 4.1 mg/24 hours/200 g body weight | 55.9 mg/24 hours/200 g body weight |  |  |
| OCC=Cc1ccc(Cc2ccccc2OC2OC(CO)C(O)C(O)C2O)cc1 [Reference Example 49, (E)-2-[4-(3-Hydroxy-1-prop-1-en-1-yl)benzyl]phenyl β-D-glucopyranoside] |  |  |  |  | 120 |

— patent publication US7541341B2, “Glucopyranosyloxybenzylbenzene derivatives and medicinal use thereof” (Kissei Pharmaceutical Co., Ltd., priority 2001, dated 2009)
